PubChem BioAssay (NCI)
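Five compound concentrations were applied to cells in 96-well plates for 48 hours; endpoints were derived by simple linear interpolation of the resulting dose-response curve. TGI is the concentration that stops growth completely.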

Assays:
Experiment in all cases: DTP human tumour cell line panel, 48 h
A549 NSCLC = tested on: A549 NSCLC
NCI-H522 lung = tested on: NCI-H522 lung
SF-295 CNS = tested on: SF-295 CNS
SW-620 colon = tested on: SW-620 colon
HT29 colon = tested on: HT29 colon
TK-10 renal = tested on: TK-10 renal
HOP-92 NSCLC = tested on: HOP-92 NSCLC
U251 CNS = tested on: U251 CNS
KM20L2 colon = tested on: KM20L2 colon
LOX IMVI melanoma = tested on: LOX IMVI melanoma
HL-60(TB) leukemia = tested on: HL-60(TB) leukemia
DMS 114 small cell lung = tested on: DMS 114 small cell lung
EKVX NSCLC = tested on: EKVX NSCLC
MOLT-4 leukemia = tested on: MOLT-4 leukemia
SR leukemia = tested on: SR leukemia
SF-268 CNS = tested on: SF-268 CNS
M14 melanoma = tested on: M14 melanoma
SNB-75 CNS = tested on: SNB-75 CNS
OVCAR-8 ovarian = tested on: OVCAR-8 ovarian
LXFL 529 NSCLC = tested on: LXFL 529 NSCLC
SK-MEL-28 melanoma = tested on: SK-MEL-28 melanoma
ACHN renal = tested on: ACHN renal
OVCAR-5 ovarian = tested on: OVCAR-5 ovarian
XF 498 CNS = tested on: XF 498 CNS
A498 renal = tested on: A498 renal
HOP-62 NSCLC = tested on: HOP-62 NSCLC
NCI-H460 lung = tested on: NCI-H460 lung
SK-OV-3 ovarian = tested on: SK-OV-3 ovarian
RPMI-8226 leukemia = tested on: RPMI-8226 leukemia
CAKI-1 renal = tested on: CAKI-1 renal
SF-539 CNS = tested on: SF-539 CNS
K-562 leukemia = tested on: K-562 leukemia
OVCAR-4 ovarian = tested on: OVCAR-4 ovarian
SNB-19 CNS = tested on: SNB-19 CNS
SK-MEL-2 melanoma = tested on: SK-MEL-2 melanoma
CCRF-CEM leukemia = tested on: CCRF-CEM leukemia
RXF 393 renal = tested on: RXF 393 renal
UACC-257 melanoma = tested on: UACC-257 melanoma
SK-MEL-5 melanoma = tested on: SK-MEL-5 melanoma
UACC-62 melanoma = tested on: UACC-62 melanoma
COLO 205 colon = tested on: COLO 205 colon
HCT-116 colon = tested on: HCT-116 colon
RXF-631 renal = tested on: RXF-631 renal
DMS 273 small cell lung = tested on: DMS 273 small cell lung
UO-31 renal = tested on: UO-31 renal
M19-MEL melanoma = tested on: M19-MEL melanoma
SN12C renal = tested on: SN12C renal
HCC-2998 colon = tested on: HCC-2998 colon
SNB-78 CNS = tested on: SNB-78 CNS
NCI-H23 lung = tested on: NCI-H23 lung
HCT-15 colon = tested on: HCT-15 colon
NCI-H226 lung = tested on: NCI-H226 lung
IGROV1 ovarian = tested on: IGROV1 ovarian
KM12 colon = tested on: KM12 colon
DLD-1 colon = tested on: DLD-1 colon
MALME-3M melanoma = tested on: MALME-3M melanoma
786-0 renal = tested on: 786-0 renal
OVCAR-3 ovarian = tested on: OVCAR-3 ovarian

O=C(Nc1ccccc1)C(=O)C(C(=O)c1ccccc1F)C1OC(=O)c2ccccc21 (stereo not drawn)
TGI (A549 NSCLC): > 100 µM
TGI (NCI-H522 lung): 61.8 µM
TGI (SF-295 CNS): > 100 µM
TGI (SW-620 colon): > 100 µM
TGI (HT29 colon): > 100 µM
TGI (TK-10 renal): > 100 µM
TGI (HOP-92 NSCLC): > 100 µM
TGI (U251 CNS): 46.9 µM
TGI (KM20L2 colon): > 100 µM
TGI (LOX IMVI melanoma): 63.2 µM
TGI (HL-60(TB) leukemia): 75.6 µM
TGI (DMS 114 small cell lung): 61.7 µM
TGI (EKVX NSCLC): > 100 µM
TGI (MOLT-4 leukemia): > 100 µM
TGI (SR leukemia): 77.9 µM
TGI (SF-268 CNS): 81 µM
TGI (M14 melanoma): > 100 µM
TGI (SNB-75 CNS): 72.2 µM
TGI (OVCAR-8 ovarian): 55 µM
TGI (LXFL 529 NSCLC): > 100 µM
TGI (SK-MEL-28 melanoma): > 100 µM
TGI (ACHN renal): > 100 µM
TGI (OVCAR-5 ovarian): > 100 µM
TGI (XF 498 CNS): > 100 µM
TGI (A498 renal): > 100 µM
TGI (HOP-62 NSCLC): > 100 µM
TGI (NCI-H460 lung): > 100 µM
TGI (SK-OV-3 ovarian): > 100 µM
TGI (RPMI-8226 leukemia): > 100 µM
TGI (CAKI-1 renal): > 100 µM
TGI (SF-539 CNS): 43.2 µM
TGI (K-562 leukemia): > 100 µM
TGI (OVCAR-4 ovarian): > 100 µM
TGI (SNB-19 CNS): > 100 µM
TGI (SK-MEL-2 melanoma): 93.8 µM
TGI (CCRF-CEM leukemia): > 100 µM
TGI (RXF 393 renal): 63.2 µM
TGI (UACC-257 melanoma): > 100 µM
TGI (SK-MEL-5 melanoma): > 100 µM
TGI (UACC-62 melanoma): > 100 µM
TGI (COLO 205 colon): 43.2 µM
TGI (HCT-116 colon): 49.9 µM
TGI (RXF-631 renal): > 100 µM
TGI (DMS 273 small cell lung): > 100 µM
TGI (UO-31 renal): > 100 µM
TGI (M19-MEL melanoma): > 100 µM
TGI (SN12C renal): > 100 µM
TGI (HCC-2998 colon): 57.4 µM
TGI (SNB-78 CNS): > 100 µM
TGI (NCI-H23 lung): > 100 µM
TGI (HCT-15 colon): 67.3 µM
TGI (NCI-H226 lung): 62.6 µM
TGI (IGROV1 ovarian): > 100 µM
TGI (KM12 colon): > 100 µM
TGI (DLD-1 colon): > 100 µM

Cc1[nH]c2ccccc2c1-c1n[nH]c(=O)c2ccccc12
TGI (A549 NSCLC): > 100 µM
TGI (SF-295 CNS): 91.8 µM
TGI (SW-620 colon): > 100 µM
TGI (HT29 colon): > 100 µM
TGI (TK-10 renal): > 100 µM
TGI (MALME-3M melanoma): 74.4 µM
TGI (U251 CNS): > 100 µM
TGI (KM20L2 colon): 92.6 µM
TGI (HL-60(TB) leukemia): 55.6 µM
TGI (DMS 114 small cell lung): 58.7 µM
TGI (EKVX NSCLC): > 100 µM
TGI (MOLT-4 leukemia): 81.3 µM
TGI (M14 melanoma): > 100 µM
TGI (SNB-75 CNS): 57.9 µM
TGI (OVCAR-8 ovarian): > 100 µM
TGI (LXFL 529 NSCLC): > 100 µM
TGI (SK-MEL-28 melanoma): > 100 µM
TGI (786-0 renal): > 100 µM
TGI (ACHN renal): > 100 µM
TGI (OVCAR-5 ovarian): > 100 µM
TGI (XF 498 CNS): 76.2 µM
TGI (A498 renal): 63.5 µM
TGI (HOP-62 NSCLC): 50.3 µM
TGI (NCI-H460 lung): > 100 µM
TGI (SK-OV-3 ovarian): 72.1 µM
TGI (RPMI-8226 leukemia): 74.7 µM
TGI (CAKI-1 renal): > 100 µM
TGI (SF-539 CNS): > 100 µM
TGI (K-562 leukemia): > 100 µM
TGI (OVCAR-4 ovarian): > 100 µM
TGI (SK-MEL-2 melanoma): > 100 µM
TGI (CCRF-CEM leukemia): > 100 µM
TGI (RXF 393 renal): 37.1 µM
TGI (UACC-257 melanoma): > 100 µM
TGI (SK-MEL-5 melanoma): 41 µM
TGI (UACC-62 melanoma): > 100 µM
TGI (HCT-116 colon): 35.8 µM
TGI (RXF-631 renal): 66.1 µM
TGI (DMS 273 small cell lung): 72.9 µM
TGI (UO-31 renal): 61.9 µM
TGI (M19-MEL melanoma): > 100 µM
TGI (HCC-2998 colon): > 100 µM
TGI (SNB-78 CNS): > 100 µM
TGI (NCI-H23 lung): > 100 µM
TGI (OVCAR-3 ovarian): 67.3 µM
TGI (HCT-15 colon): > 100 µM
TGI (NCI-H226 lung): 85.3 µM
TGI (IGROV1 ovarian): > 100 µM
TGI (KM12 colon): > 100 µM
TGI (DLD-1 colon): > 100 µM

Cc1ccc(S(=O)(=O)CC(=O)CC(=O)C(=O)Nc2cccc(C(F)(F)F)c2)cc1
TGI (A549 NSCLC): > 100 µM
TGI (NCI-H522 lung): > 100 µM
TGI (SF-295 CNS): > 100 µM
TGI (SW-620 colon): > 100 µM
TGI (HT29 colon): > 100 µM
TGI (TK-10 renal): > 100 µM
TGI (HOP-92 NSCLC): > 100 µM
TGI (MALME-3M melanoma): > 100 µM
TGI (U251 CNS): > 100 µM
TGI (KM20L2 colon): > 100 µM
TGI (LOX IMVI melanoma): > 100 µM
TGI (HL-60(TB) leukemia): > 100 µM
TGI (EKVX NSCLC): > 100 µM
TGI (MOLT-4 leukemia): > 100 µM
TGI (SR leukemia): > 100 µM
TGI (SF-268 CNS): > 100 µM
TGI (M14 melanoma): > 100 µM
TGI (SNB-75 CNS): > 100 µM
TGI (LXFL 529 NSCLC): > 100 µM
TGI (SK-MEL-28 melanoma): > 100 µM
TGI (786-0 renal): > 100 µM
TGI (ACHN renal): > 100 µM
TGI (XF 498 CNS): > 100 µM
TGI (SK-OV-3 ovarian): > 100 µM
TGI (RPMI-8226 leukemia): > 100 µM
TGI (CAKI-1 renal): > 100 µM
TGI (SF-539 CNS): > 100 µM
TGI (K-562 leukemia): > 100 µM
TGI (SNB-19 CNS): > 100 µM
TGI (SK-MEL-2 melanoma): > 100 µM
TGI (CCRF-CEM leukemia): > 100 µM
TGI (UACC-257 melanoma): > 100 µM
TGI (SK-MEL-5 melanoma): > 100 µM
TGI (UACC-62 melanoma): > 100 µM
TGI (HCT-116 colon): > 100 µM
TGI (RXF-631 renal): > 100 µM
TGI (DMS 273 small cell lung): > 100 µM
TGI (UO-31 renal): > 100 µM
TGI (M19-MEL melanoma): > 100 µM
TGI (SN12C renal): > 100 µM
TGI (SNB-78 CNS): > 100 µM
TGI (NCI-H23 lung): > 100 µM
TGI (OVCAR-3 ovarian): > 100 µM
TGI (HCT-15 colon): > 100 µM
TGI (NCI-H226 lung): > 100 µM
TGI (IGROV1 ovarian): > 100 µM
TGI (KM12 colon): > 100 µM
TGI (DLD-1 colon): > 100 µM
